How the values were obtained:
[1] = test system: rat livers; test: Ki67 staining of rat livers with or without RS pretreatment; type: in vivo; details: RS pretreatment vs none, after 2 months of programmed NTBC controlling
Experimental: 7. Immunohistochemistry • (1) The steps of dewaxing and rehydration are the same as above. • (2) Draw a circle around the sample with an ImmunoPen, drop a drop of 3% H2O2 for 15 minutes at room temperature for blocking endogenous peroxidase. • (3) Wash twice with PBS for 5 minutes each time. • (4) The blocking was carried with 1:20 Normal horse serum (dissolved in 1% BSA-PBS), incubated at room temperature for 20 minutes and washed for 3 times with PBS. • (5) The primary antibody was added, then the slices were put in a humid box, sealed and kept overnight at 4 degrees. • (6) Wash three times with PBS for 5 minutes each time. • (7) Secondary antibody was added and incubated at room temperature for 30 minutes. Wash three times with PBS for 5 minutes each time. • (8) AB solution in ABC kit (1:100 dilution of solution A and B) was added and incubated at room temperature for 30 minutes. Wash three times with PBS for 5 minutes each time. • (9) DAB coloration was carried and the time for coloration was adjusted according to different antibodies. • (10) Hematoxylin counterstaining for 20 minutes. Rinse with tap water for half an hour. • (11) Gradient dehydration: 50% ethanol, 70% ethanol, 80% ethanol, 90% ethanol, 100% ethanol, each for 2 minutes. • (12) After 15-30 minutes of xylene, sections were sealed with neutral resin and saved. […]

[2] = test system: primary human hepatocytes (PHH); test: Measurement of human albumin secretion in serum of PHH-transplanted rats (ELISA); type: in vivo, rat
Experimental: 100 μl of rat peripheral blood was collected through the tail vein, and after coagulation at room temperature, centrifuged at 400-g for 10 minutes, with the supernatant collected to obtain serum. The secretion level of human albumin was tested according to the instructions of the Human Albumin ELISA Quantitation Set kit. Serum was diluted 10-100000 times according to the actual concentration, so that the calculated value falls within the linear range of the standard curve to obtain accurate values.
(§1) 12. Primary Hepatocyte Transplantation and Programmed NTBC Circulation • (1) Preparation before transplantation: Female FRG rats aged 7-8 weeks were intraperitoneally injected with 30 mg/kg Retrorsine 2 weeks before transplantation, and the concentration of NTBC in daily water was reduced from the normal maintenance concentration (5˜8 mg/L) to low concentration (0.2 mg/L) 1 week before transplantation. When the programmed NTBC cycle began, daily NTBC water was provided according to the method of 0.2 mg/L×7 days+5 mg/L×4 days (one cycle period of 11 days in total).

[3] = biological target: T1, UGT2B7 (Homo sapiens, UniProt P16662); details: in human; cited from earlier work
T1 sequence (P16662 24-529): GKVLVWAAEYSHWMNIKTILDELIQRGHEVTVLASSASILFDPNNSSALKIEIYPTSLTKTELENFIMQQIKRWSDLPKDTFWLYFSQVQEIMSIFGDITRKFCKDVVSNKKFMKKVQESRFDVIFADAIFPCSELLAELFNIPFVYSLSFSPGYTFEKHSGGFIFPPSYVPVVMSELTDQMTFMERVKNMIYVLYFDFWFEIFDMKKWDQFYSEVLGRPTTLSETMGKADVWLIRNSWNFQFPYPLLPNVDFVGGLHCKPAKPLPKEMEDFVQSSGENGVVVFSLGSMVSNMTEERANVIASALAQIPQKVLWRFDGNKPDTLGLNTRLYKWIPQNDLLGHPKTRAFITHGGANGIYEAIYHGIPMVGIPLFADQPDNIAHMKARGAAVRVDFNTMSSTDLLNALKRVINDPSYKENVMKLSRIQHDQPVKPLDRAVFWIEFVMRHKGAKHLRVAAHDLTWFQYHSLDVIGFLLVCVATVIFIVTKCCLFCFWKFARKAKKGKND

[4] = test system: UGT2B7; test: UGT2B7 metabolism test in vivo; parameters: species or system rat; details: rats with liver humanization vs control group, after oral AZT
Experimental: Liver humanized and […] FRG rats were orally administered 15 mg/kg zidovudine (Wako), and peripheral blood was collected after 0, 0.5, 1, 2, 4 and 8 hours. After 30 μl of plasma was diluted 2 fold with PBS, the contents of substrates and metabolites were detected by LC-MS/MS (Agilent 1200 HPLC and ABI 4000 mass-spectrometer).

[5] = test system: UGT2B7; details: in rats; cited from earlier work
[6] = test system: Fah−/−Rag2−/−IL2rg−/− rats (FRG rats); test: Survival of FRG rats under NTBC supply / programmed NTBC controlling; type: in vivo, rat
Experimental: Fah^−/−Rag2^−/−IL2rg^−/− rats (FRG rats) were housed in the Experimental Animal Center of Jiangsu University.
In the past feeding, FRG rats were daily supplied with 5-8 mg/L. In the present disclosure, the lowest dose of 5 mg/L NTBC was set as 100% NTBC; According to the weight (250-300 g) and the amount of water (25-50 ml/day) of rats, we can get: • 4% NTBC: equivalent to an average of 0.03 mg/kg/day; • 100% NTBC: equivalent to an average of 0.75 mg/kg/day. • (2) The transplantation was performed under an anesthesia machine using isoflurane. The rat was fixed with its abdomen facing upward, and cleaned and disinfected with iodine and alcohol after dehairing. • (3) By cutting the epidermis and muscle layers, the hepatic portal vein was found. 2×10^6 human primary hepatocytes (resuspended in 800 μl DMEM+10% FBS) were slowly injected with a 26G needle. After completing the injection and paused for a few seconds, the needle was then pulled out, with the needle port quickly pressed with a sterile cotton swab. • (4) After pressing for about 1 minute, with no blood effusion be observed, the muscle and epidermis were sutured and the wound was disinfected with alcohol cotton.
The optimal NTBC maintenance concentration was determined by comparing the survival rate of rats at different NTBC concentrations (0%, 1%, 4%, 10%, 100%).
Due to a long period of the humanization process and in order to further improve the long-term survival rate of rats under liver injury, the inventors designed a series of NTBC dosage regimens, which are called Programmed NTBC controlling scheme with a fixed cycle period (Programmed NTBC controlling, NTBC^P), including 5, 7 and 9 days of maintenance in 4% NTBC conditions, respectively, and 4 days of 100% NTBC recovery after that to alleviate accumulated liver injury (FIG. 2C).

[7] = test system: humanized livers; test: Detection of humanized liver tumorigenesis (liver/bodyweight ratio, histology, AFP); details: NTBC^P, 7 months after PHH transplantation
Experimental: Under the programmed NTBC controlling scheme, NTBC^P, (7+4: 7 days of 4% NTBC+4 days of 100% NTBC cycle; and Retrorsine pretreatment) mentioned above, humanized livers were obtained and liver/bodyweight ratios were calculated 7 months after transplantation of PHH in FRG rats.

[8] = test system: Afp; test: Quantitative qPCR of rat Afp gene in liver; type: in vivo; details: long-term programmed NTBC controlling (5+4 and 7+4)
Experimental: 1 μg RNA was reverse-transcribed into cDNA with Revert Aid RT kit according to manufacturer's instructions. According to the instructions of THUNDERBIRD SYBR qPCR Mix kit, cDNA was amplified and quantitatively analyzed on a quantitative PCR machine. Relative expression levels of target genes were based on ACTB as an internal reference. All data were repeated at least twice.

[9] = test system: hALB-positive hepatocytes; test: Ki67 and hALB counterstaining of humanized livers; type: in vivo, rat; details: NTBC^P, 7 months after transplantation
Experimental: 8. Immunofluorescence Staining • (1) Frozen sections (7 μm) were fixed in 4% PFA at room temperature for 10 minutes, or in methanol:acetone (1:1) at −30° C. for 30 minutes. • (2) Wash three times with 0.1% tween-PBS for 5 minutes each time. • (3) 10% goat or donkey serum was used for blocking for 60 minutes at room temperature. • (4) The primary antibody was used for incubation overnight at 4° C. • (5) Wash three times with 0.1% tween-PBS for 5 minutes each time. • (6) The secondary antibody conjugated with fluorescein was used for incubation at room temperature for 60 minutes. • (7) Wash three times with PBS for 5 minutes each time. • (8) DAPI was added and the sections were mounted by mounting medium and preserved.

[10] = test system: rat livers; test: Sirius red staining, degree of liver fibrosis; type: in vivo; details: programmed NTBC 7+4 compared with 5+4
[11] = test system: primary human hepatocytes (PHH); test: Repopulation rate of human hepatocytes in FRG rat livers (hNuclei immunostaining); type: in vivo; details: cyclic NTBC withdrawal/administration based on stepped withdrawal or body weight change, Fah-deficient rats, preliminary tests
Experimental: as §1
By immunostaining of the human-specific marker hNuclei, the repopulation rates of humanized rat livers can be calculated.

[12] = test system: FRG rats; test: Liver function test (serum ALT and AST); type: in vivo, rat
Experimental: The content of alanine aminotransferase (ALT) and aspartate aminotransferase (AST) in rat serum was measured according to the instructions of biochemical analyzer FUJI DRI-CHEM 7000V (Fujifilm. Japan).

Retrorsine
proportion of Ki67 positive cells in rat livers [1]: significantly lower | human albumin secretion level ([2]; RS pretreatment vs none, within 4 weeks after PHH transplantation, NTBC 7+4): increased significantly | human albumin secretion level ([2]; Retrorsine combined with partial hepatectomy, before development of NTBC^P scheme): 90 µg/mL

Cc1cn([C@H]2C[C@H](N=[N+]=[N-])[C@@H](CO)O2)c(=O)[nH]c1=O [AZT, zidovudine]
AZT metabolized to AZT-5′-glucuronide [3]: 75% | AZT-5′-glucuronide concentration [4]: significantly higher | metabolic conversion rate of AZT to AZT-5′-glucuronide [5]: 10%

O=C1CCCC(=O)C1C(=O)c1ccc(C(F)(F)F)cc1[N+](=O)[O-] [NTBC, 2-(2-nitro-4-trifluoromethylbenzoyl)-1.3 cyclohexanedione]
median survival time ([6]; NTBC concentration 4% of the maintenance dose (5 mg/L)): 22 days | rats surviving for at least 20 weeks ([6]; PHH-transplanted FRG rats, NTBC^P (7+4) with Retrorsine pretreatment): 6/7 | healthy survival of FRG rats ([6]; maintenance of 100% NTBC (5 mg/L in daily water)): at least 1.5 years | AFP gene and protein levels [7]: no abnormal up-regulation | tumor formation (histology) [7]: no tumor formation | liver/bodyweight ratio ([7]; vs nontransplanted controls): not significantly increased | expression of rat liver oncogene Afp [8]: did not lead to abnormal upregulation | proportion of Ki67-positive cells in hALB-positive hepatocytes [9]: more than 10% | human albumin secretion level, mean ([2]; NTBC^P (7+4) with Retrorsine pretreatment, 7 months after PHH transplantation): 1.7 ± 0.3 mg/mL | degree of liver fibrosis [10]: more significant | proportion of human hepatocyte repopulation [11]: less than 10% | levels of ALT and AST ([12]; 4% NTBC compared with 10% NTBC): higher levels of ALT and AST | levels of ALT and AST ([12]; programmed NTBC 7+4 compared with 5+4): significantly higher

From patent US20240108590A1, “MAINTENANCE OF PROGRAMMED CHRONIC LIVER INJURY OF FAH GENE-DEFICIENT ANIMALS AND APPLICATION THEREOF IN PREPARATION OF HETEROLOGOUS LIVER MODELS” (Jiangsu University, priority 2020, published 2024)
